According to paper PMC4269296 (Nucleosides, nucleotides & nucleic acids, 2015):

Columns and labels:
[1] = system: Cell-Associated Virus (X4); test: Cell-associated transmission assay; assay type: cell-based, HIV-1; conditions: for Cell-Associated Virus CTC EC50: cell-associated transmission assay (X4); for EC50: Human immunodeficiency virus 1, read-out: Cell-Associated Virus CTC EC50
[2] = system: HIV infected T4 lymphocytes; conditions: read-out: EC50 against HIV infected T4 lymphocytes; cited from earlier work
[3] = system: X4 and R5 cell free virus; assay type: cell-based, HIV-1; conditions: for EC50: Human immunodeficiency virus 1, read-out: EC50 against X4 and R5 cell free virus
[4] = system: R5 (BaL) HIV-1; test: Single-round; assay type: cell-based; conditions: Human immunodeficiency virus 1, BAL, MAGI, read-out: Cell-Free Virus R5 EC50
[5] = in vitro; conditions: human
[6] = system: X4 (IIIB) HIV-1; test: Single-round; assay type: cell-based; conditions: Human immunodeficiency virus 1, IIIB, MAGI, read-out: Cell-Free Virus X4 EC50

SMILES	Cell-Associated Virus CTC EC50 [1]	EC50 [2]	EC50 [3]	EC50 [4]	EC50 at 2 h [5]	EC50 [1]	EC50 [6]	fold higher inhibition against X4 virus than the R5 virus strain ([3]; ratio of R5 and X4 EC50)
N=C(N)NCCC[C@H](NC(=O)[C@H](CCCNC(=N)N)NC(=O)[C@H](CCCNC(=N)N)NC(=O)[C@H](CCCNC(=N)N)NC(=O)[C@H](CCCNC(=N)N)NC(=O)[C@H](CCCNC(=N)N)NC(=O)[C@H](CCCNC(=N)N)NC(=O)CCCCCCCCCCCCC(=O)OC[C@@H]1O[C@H](n2cc(F)c(N)nc2=O)CS1)C(=O)O [Compound 15, 1-[(−)-2′,3′-dideoxy-5-fluoro-3′-thiacytidine]tetradecan-1,14-dioate conjugate of PolyArg]	>30 µM	–	–	–	–	–	–	–
CCSCCCCCCCCCCCC(=O)O [12-Thioethyldodecanoic acid]	–	9.4 µM	–	–	–	–	–	–
Cc1cn([C@H]2C[C@H](F)[C@@H](CO)O2)c(=O)[nH]c1=O [FLT (1), 3′-Fluoro-2′,3′-deoxythymidine]	–	–	0.1 to 0.2 µM	0.1 µM	> 100 µM	> 100 µM	0.2 µM	–
N=C(N)NCCC[C@H](NC(=O)[C@H](CCCNC(=N)N)NC(=O)[C@H](CCCNC(=N)N)NC(=O)[C@H](CCCNC(=N)N)NC(=O)[C@H](CCCNC(=N)N)NC(=O)[C@H](CCCNC(=N)N)NC(=O)[C@H](CCCNC(=N)N)NC(=O)CCCCCCCCCCCCC(=O)OC[C@@H]1O[C@H](n2ccc(N)nc2=O)CS1)C(=O)O [Compound 14, 1-[(−)-2′,3′-Dideoxy-3′-thiacytidine]tetradecan-1,14-dioate conjugate of PolyArg]	>30 µM	–	–	–	–	–	–	approximately 2 fold
Nc1nc(=O)n([C@@H]2CS[C@H](CO)O2)cc1F [FTC (3), (−) 2′,3′–Dideoxy-5-fluoro-3′-thiacytidine]	–	–	0.18 to 0.48 µM	–	> 100 µM	21.9 µM	–	–
Nc1ccn([C@@H]2CS[C@H](CO)O2)c(=O)n1 [3TC (2), (−)-2′,3′-Dideoxy-3′-thiacytidine]	–	–	2.6 to 7.5 µM	2.6 µM	> 100 µM	18.4 µM	7.5 µM	–
